pIC50: −log10 of the molar value.
Columns and labels:
Format in all cases: cell-based
[1] = Inhibition of human PSEN2/APH1B expressed in MEF cells with Psen1/2 double knockout/Aph1ABC triple knockout by ELISA
[2] = Inhibition of human PSEN1/APH1A expressed in MEF cells with Psen1/2 double knockout/Aph1ABC triple knockout by ELISA
[3] = Inhibition of human PSEN1/APH1B expressed in MEF cells with Psen1/2 double knockout/Aph1ABC triple knockout by ELISA
[4] = Inhibition of human PSEN2/APH1A expressed in MEF cells with Psen1/2 double knockout/Aph1ABC triple knockout by ELISA

| pIC50 [1] | pIC50 [2] | pIC50 [3] | pIC50 [4] | SMILES |
| --- | --- | --- | --- | --- |
| 5.70 | 6.68 | 7.28 | 5.85 | COCC(=O)Nc1ccc([C@@H]2[C@@H]3CC[C@@H](C[C@@H]3O)N2S(=O)(=O)c2ccc(Cl)cc2)cc1 (racemic) |
| < 5.00 | 6.53 | 7.24 | < 5.00 | O=S(=O)(c1ccc(Cl)cc1)N1[C@H]2CC[C@@H]([C@H]1c1ccc(F)c(F)c1)[C@@H](O)C2 (racemic) |
| < 5.00 | 6.40 | 7.13 | < 5.00 | O=S(=O)(c1ccc(Cl)s1)N1[C@H]2CC[C@@H]([C@H]1c1ccc(F)c(F)c1)[C@@H](O)C2 (racemic) |
| < 5.00 | 5.19 | 6.11 | < 5.00 | O=S(=O)(c1ccc(Cl)cc1)N1[C@H]2CC[C@H]([C@H](O)C2)[C@H]1c1ccc(C(F)(F)F)nc1 (racemic) |
| < 5.00 | 6.82 | 7.43 | < 5.00 | O=S(=O)(c1ccc(Cl)cc1)N1[C@H]2CC[C@@H]([C@H]1c1ccc(OC(F)(F)F)cc1)[C@@H](O)C2 (racemic) |
| < 5.10 | 6.68 | 7.30 | < 5.10 | Cc1ccc(S(=O)(=O)N2[C@H]3CC[C@@H]([C@H]2c2ccc(C(F)(F)F)cc2)[C@@H](O)C3)cc1 (racemic) |
| < 5.70 | 6.70 | 7.24 | < 5.70 | O=S(=O)(c1ccc(Cl)s1)N1[C@H]2CC[C@@H]([C@H]1c1ccc(Cl)cc1)[C@@H](O)C2 (racemic) |
| 6.07 | 7.14 | 7.59 | 6.29 | CC(=O)Nc1ccc([C@@H]2[C@@H]3CC[C@@H](C[C@@H]3O)N2S(=O)(=O)c2ccc(Cl)s2)cc1 (racemic) |
| 6.22 | 6.99 | 7.85 | 6.37 | O=S(=O)(c1ccc(Cl)cc1)N1[C@H]2CC[C@@H]([C@H]1c1ccccc1)[C@@H](O)C2 (racemic) |
| 6.04 | 6.72 | 7.54 | 6.54 | CCOC(=O)Nc1ccc([C@@H]2[C@@H]3CC[C@@H](C[C@@H]3O)N2S(=O)(=O)c2ccc(Cl)cc2)cc1 (racemic) |
| 5.32 | 6.35 | 7.10 | 5.63 | CCNC(=O)Nc1ccc([C@@H]2[C@@H]3CC[C@@H](C[C@@H]3O)N2S(=O)(=O)c2ccc(Cl)cc2)cc1 (racemic) |
| < 5.89 | 6.87 | 7.61 | 5.92 | CC(=O)Nc1ccc([C@@H]2[C@@H]3CC[C@@H](C[C@@H]3O)N2S(=O)(=O)c2ccc(Cl)cc2)cc1 (racemic) |
| < 5.00 | 6.42 | 7.21 | < 5.00 | COc1ccc([C@@H]2[C@@H]3CC[C@@H](C[C@@H]3O)N2S(=O)(=O)c2ccc(Cl)cc2)cn1 (racemic) |
| < 5.70 | 6.83 | 7.34 | < 5.70 | O=S(=O)(c1ccc(Cl)cc1)N1[C@H]2CC[C@@H]([C@H]1c1ccc(Cl)cc1)[C@@H](O)C2 (racemic) |
| 6.20 | 7.19 | 7.92 | 6.12 | N#Cc1ccc([C@@H]2[C@@H]3CC[C@@H](C[C@@H]3O)N2S(=O)(=O)c2ccc(Cl)cc2)cc1 (racemic) |
| < 5.00 | 5.96 | 6.80 | < 5.00 | Cc1ccc(S(=O)(=O)N2[C@H]3CC[C@@H]([C@H]2c2ccc(C#N)nc2)[C@@H](O)C3)cc1 (racemic) |
| 5.47 | 6.83 | 7.41 | 5.52 | N#Cc1ccc([C@@H]2[C@@H]3CC[C@@H](C[C@@H]3O)N2S(=O)(=O)c2ccc(Cl)s2)cn1 (racemic) |

Source: ChEMBL document CHEMBL5625242, “Discovery of brain permeable 2-Azabicyclo[2.2.2]octane sulfonamides as a novel class of presenilin-1 selective γ-secretase inhibitors” (Eur J Med Chem, 2023)
